Assays:
[1] = system: Tg(fabp10a:DsRed) zebrafish larvae; test: Hepatotoxicity by quantification of DsRed-labeled hepatocytes using cell imaging counting (CIC); conditions: for Hepatotoxicity detected: number of Hepatocytes (CIC): 6 dpf, vs vehicle control; for change in amount of recovered hepatocytes: any of the administration routes, vs non-treated animals
Experimental: We then used CIC and quantified ex vivo DsRed-labeled hepatocytes after dispase-digestion of hepatotoxicant-exposed larvae. […] Analysis was performed after three days of treatment (immersion) or three days after treatment (injection), at 6 dpf. A total of 10 and 12 larvae were used individually per condition for immersion and injections, respectively. The experiment was performed in triplicate and data were pooled. […] Means ± SD of the number of hepatocytes per larva are shown.
Compounds tested were dissolved in DMSO (stock solution) and then further diluted in Danieau’s solution with a final concentration of 1% DMSO or diluted with 0.9% NaCl solution (1:1 ratio) to obtain a working solution for immersion and yolk/pericardial injections, respectively. At 3 dpf, hatched Tg(fabp10a:DsRed) larvae were transferred to 24-well plates (Falcon®, Corning, Lasne, Belgium) with each well containing 10 larvae in 1 mL Danieau’s solution and the dissolved drug or the vehicle control for immersion. For yolk injections, and pericardial injections into the bloodstream via the common cardinal veins, 12 larvae were used for each condition, and each larva was injected with 1 nL of solution at 3 dpf.
In order to digest the larvae and separate hepatocytes from the liver, larvae were transferred to 96 well-plates (Falcon®, Corning, Lasne, Belgium) with one larva per well and incubated with 200 µL 2.5 mg dispase/mL DPBS for 4 h. […] The hepatocytes were dispersed by pipetting up and down 20 times with a 1 mL automatic pipette. After digestion, hepatocytes were positioned at the bottom of the well by centrifugation at 200× g (Jouan CR412 centrifuge, Jouan, Saint-Herblain, France) for 15 min.
Fluorescent hepatocytes present in the wells were imaged and counted on an IN Cell Analyzer 2000 using software IN Cell Investigator Developer Toolbox (GE Healthcare, Machelen, Belgium), with a 2×/0.1 NA lens, DsRed fluorescence channel, a 0.1-s exposure time, and the intensity segmentation (172-4095) set to ensure hepatocytes were recognized selectively.
Differences between drug-treated groups and control vehicle control (VHC) regarding numbers of hepatocytes and liver sizes were analyzed for statistical significance using an ANOVA test. Regarding the liver morphology, Fisher’s exact test was used for the analysis. p < 0.05 was considered statistically significant.

[2] = Pharmacokinetics in zebrafish larvae (larval extracts, UHPLC-UV); assay type: in vivo, Zebrafish (Danio rerio); conditions: 0-24 h post treatment; for course of larval concentration after injection: yolk and pericardial injection at MD
Experimental: At given time points (0, 2, 6, 12 and 24 h), treated larvae were collected and transferred to 1.5 mL Eppendorf® tubes pre-filled with acid washed glass beads (diameter: 710–1180 µm, Sigma-Aldrich) and 270 µL of extraction medium (1:2 water:methanol, each containing 0.1% formic acid) was added (10 larvae per Eppendorf® tube). Samples were centrifuged for 15 s at 14,100× g (Eppendorf Mini Spin Plus, Hamburg, Germany) to insure high homogenization efficiency. Subsequently, the samples were homogenized with ultrasonication (Diagenode Bioruptor Plus, Seraing, Belgium) at +4 °C and high energy input setting to ensure the highest possible disruption of the cells. The overall treatment time was 15 min spread over 30 cycles of 30 s treatment followed by pauses of 30 s in-between. Six samples were homogenized during each treatment cycle. Subsequently, treated samples were centrifuged at 14,100× g for 15 min and 200 µL of supernatant was transferred to an empty Eppendorf tube (1.5 mL) and stored on ice until all samples were processed. All samples were then placed into a vacuum oven (Model 1410, Sheldon Manufacturing Inc., Cornelius, OR, USA) and evaporated until dry at +45 °C during 45 min. The samples were then reconstituted with a mobile phase-like solution (6% acetonitrile in water), vortexed for 5 s, resuspended at least three times with a micropipette and sonicated (Branson 3510, Danbury, CT, USA) for 15 min. Finally, samples were transferred into amber glass vials (Supelco, Bellefonte, PA, USA) with 250 µL glass inserts (Supelco) for further analysis on UHPLC-UV.
An Agilent 1290 UHPLC system (Agilent, Waldbronn, Germany) consisting of an autosampler, quaternary pump, degasser and DAD-detector (diode array detector) was used for all uptake measurements. […] All calculations concerning the evaluation of recorded data were made in MS Excel (Microsoft Corporation, Seattle, WA, USA). […]
The larval amount of hepatotoxicant (mg/kg) was calculated assuming the weight of a 3 or 4 dpf Tg(fabp10a:DsRed) zebrafish larva to be 0.25 mg.

[3] = system: Tg(fabp10a:DsRed) zebrafish larvae; test: Lethality in zebrafish larvae: maximum non-toxic drug concentration/dose (MC/MD); assay type: in vivo, Zebrafish (Danio rerio); conditions: for MD: maximum non-toxic drug dose: less than 10% larval death at 6 dpf, or highest dose injectable without precipitation; for MC: maximum non-toxic drug concentration: immersion 3-6 dpf, less than 10% larval death at 6 dpf, or highest soluble concentration; for lethality (larval death): immersion, yolk and pericardial injection, up to highest soluble concentration/dose, 6 dpf
Excerpt: The results are expressed as percentage of dead larvae relative to the total larvae (mean ± SD).

[4] = system: Tg(fabp10a:DsRed) zebrafish larvae; test: Hepatotoxicity by visual analysis of liver morphology using fluorescence microscopy; assay type: in vivo, Zebrafish (Danio rerio); conditions: 6 dpf; for Hepatotoxicity detected: Morphology: vs vehicle control; for Hepatotoxicity detected: Morphology: key: Bold S: statistically significant difference; NS: no statistically significant difference
Experimental: We observed a range of abnormal liver phenotypes including reduced and enlarged livers (Figure 2). […].
The results are expressed as the percentage of larvae having normal or abnormal liver morphology.
(§1) At 6 dpf treated larvae were anesthetized by 0.5 mM tricaine in a 6 well-plate (Falcon®) and arranged so that they were lying on their right sides with their heads facing left. This enabled us to view the left lateral side of the larvae and the larger lobe of the liver that was scored in a blinded manner under a fluorescence microscope (Leica MZ10F-Dsred channel, 40× magnification, Leica Microsystems, Wetzlar, Germany). Livers were considered abnormal if their typical globular structure underwent gross morphological changes. Images of the livers (including a scale bar) were imported to ImageJ software (National Institutes of Health, Bethesda, MD, USA) for determining the liver size. To that end, the picture was set to scale (functions: analyze, set scale), the liver area extracted (functions: split channel, threshold) and the area calculated (function: analyze particles, settings: size = 0−infinity, circularity = 0.00−1.00).

[5] = system: Tg(fabp10a:DsRed) zebrafish larvae; test: Hepatotoxicity by size analysis of fluorescent 2D liver images (ImageJ); assay type: in vivo, Zebrafish (Danio rerio); conditions: for Hepatotoxicity detected: Liver size: 6 dpf, vs vehicle control; for change in liver size: any of the administration routes, vs non-treated animals; for Hepatotoxicity detected: Liver size: key: Bold S: statistically significant difference; NS: no statistically significant difference
Experimental: Next, the 2D images obtained in the previous section were used to analyze the size of the fluorescent livers by ImageJ software. […].
as §1

[6] = all three administration routes, MC/MD and dilutions
[7] = immersion, MC and lower concentrations

Row | Compound | course of larval concentration after injection [2] | MD: maximum non-toxic drug dose ([3]; pericardial injection at 3 dpf) | MD: maximum non-toxic drug dose ([3]; yolk injection at 3 dpf) | abnormal liver morphology [4, 6] | Hepatotoxicity detected: Morphology ([4]; immersion, MC) | Hepatotoxicity detected: Morphology ([4]; yolk injection, MD) | hepatotoxicity by liver size [5, 7] | Hepatotoxicity detected: Liver size ([5]; immersion, MC) | MC: maximum non-toxic drug concentration [3] | lethality (larval death) [3] | change in amount of recovered hepatocytes [1] | change in liver size [5] | also measured
1 | CN(C)[C@@H]1C(O)=C(C(N)=O)C(=O)[C@@]2(O)C(O)=C3C(=O)c4c(O)cccc4[C@@](C)(O)[C@H]3C[C@@H]12 [Tetracycline] | remained nearly constant | 384 ^1 mg/kg | 192 mg/kg | induced abnormal liver morphology in a dose-dependent manner | S | S | hepatotoxic only at their MC | S | – | – | – | – | Hepatotoxicity detected: number of Hepatocytes (CIC) ([1]; immersion, MC): S; hepatotoxicity by CIC hepatocyte count ([1]; immersion, three concentrations): hepatotoxic effects induced by all three tetracycline concentrations; Hepatotoxicity detected: number of Hepatocytes (CIC) ([1]; immersion, ¼ MC): S; Hepatotoxicity detected: number of Hepatocytes (CIC) ([1]; immersion, ½ MC): S; hepatotoxicity by CIC hepatocyte count ([1]; injected doses (yolk or pericardial)): showed no effects; Hepatotoxicity detected: Morphology ([4]; pericardial injection, MD): S; Hepatotoxicity detected: Morphology ([4]; pericardial injection, ½ MD): S
2 | CC(=O)Nc1ccc(O)cc1 [Paracetamol] | fully excreted or metabolized after 24 h | 604 ^1 mg/kg | 604 ^1 mg/kg | – | S | S | hepatotoxic only at their MC | S | 7500 µM | caused larval death in several of the conditions tested | – | – | half-life ([2]; Tg(fabp10a:DsRed), zebrafish, in vivo, after both yolk and pericardial injections (604 mg/kg), read-out: half-life of larval concentration): 6 to 8 h; Hepatotoxicity detected: Morphology ([4]; immersion, ½ MC): S; abnormal liver morphology ([4]; pericardial injections): no significant toxic effects; Hepatotoxicity detected: Morphology ([4]; yolk injection, ½ MD): S; hepatotoxicity by liver size ([5]; injected (yolk or pericardial)): exhibited an effect at its MD after yolk administration; Hepatotoxicity detected: Liver size ([5]; yolk injection, MD): S
3 | C[C@@H]1O[C@@H](OC[C@H]2O[C@@H](Oc3c(-c4ccc(O)c(O)c4)oc4cc(O)cc(O)c4c3=O)[C@H](O)[C@@H](O)[C@@H]2O)[C@H](O)[C@H](O)[C@H]1O [Rutin] | – | 150 ^1 mg/kg | 150 ^1 mg/kg | did not induce abnormal liver morphology | – | – | – | – | 200 ^1 µM | did not induce lethality | did not induce any change in the amount of recovered hepatocytes | did not induce any change in liver size | –
4 | OC[C@H]1O[C@@](CO)(O[C@H]2O[C@H](CO)[C@@H](O)[C@H](O)[C@H]2O)[C@@H](O)[C@@H]1O [Sucrose] | – | 548 ^1 mg/kg | 548 ^1 mg/kg | did not induce abnormal liver morphology | – | – | – | – | 8000 ^1 µM | did not induce lethality | did not induce any change in the amount of recovered hepatocytes | did not induce any change in liver size | –

Reference: publication PMC5343891, “Cell Imaging Counting as a Novel Ex Vivo Approach for Investigating Drug-Induced Hepatotoxicity in Zebrafish Larvae” (International Journal of Molecular Sciences, 2017)
